In US8853234B2, “Quinolone analogs and methods related thereto” (Senhwa Biosciences, Inc., priority 2007, dated 2014):
pIC50: −log10 of the molar value. Read-outs that look alike come from different tables or passages of the source.

What was measured:
MiaPaCa xenograft tumors = assay: MiaPaCa xenograft tumor inhibition; assay type: in vivo, rodents; details: 100 mg/kg oral twice per day, twenty-two days
Protocol: (§1) Compounds A1, A2 and A3 also were tested for tumor inhibition in xenograft rodents. Rodents having A375 cell xenograft tumors were administered 100 mg/kg, 75 mg/kg and 100 mg/kg doses of Compound A1, A2 and A3, respectively, by oral delivery twice a day. […] Also, rodents having MiaPaCa xenograft tumors were administered 100 mg/kg doses of Compound A1 and A3 by oral delivery twice per day.

[1] = system: A375 cell xenograft tumors; assay: A375 cell xenograft tumor inhibition; assay type: in vivo, rodents; details: 100 mg/kg oral twice a day, seven days
Protocol: as §1

[2] = system: a variety of cell types that are representative of different cancers; assay: Alamar Blue cell viability assay, variety of cell types representative of different cancers (Tables 12-14); assay type: cell-based; details: read-out: IC50
Protocol: A representative cell-proliferation assay protocol using Alamar Blue dye (stored at 4° C., use 20 ul per well) is described hereafter.
96-Well Plate Setup and Compound Treatment
a. Split and trypsinize cells.
b. Count cells using hemocytometer.
c. Plate 4,000-5,000 cells per well in 100 μl of medium and seed into a 96-well plate according to the following plate layout. Add cell culture medium only to wells B10 to B12. Wells B1 to B9 have cells but no compound added.
d. Add 100 μl of 2× drug dilution to each well in a concentration shown in the plate layout above. At the same time, add 100 μl of media into the control wells (wells B10 to B12). Total volume is 200 μl/well.
e. Incubate four (4) days at 37° C., 5% CO2 in a humidified incubator.
f. Add 20 μl Alamar Blue reagent to each well.
g. Incubate for four (4) hours at 37° C., 5% CO2 in a humidified incubator.
h. Record fluorescence at an excitation wavelength of 544 nm and emission wavelength of 590 nm using a microplate reader.
In the assays, cells are cultured with a test compound for approximately four days, the dye then is added to the cells and fluorescence of […] dye is detected after approximately four hours. Different types of cells can be utilized in the assays (e.g., HCT-116 human colorectal carcinoma cells, PC-3 human prostatic cancer cells and MiaPaca human pancreatic carcinoma cells). Anti-proliferative effects of representative compounds are provided hereafter.
(§2) Inhibitory activity on cell proliferation of Compounds A1, A2 and A3 was determined using an Alamar Blue cell viability assay (e.g., Example 39 herein) using a variety of cell types that are representative of different cancers Inhibition values (IC50) are presented in micromolar concentrations in the following table (Table 12).
as §2, with “representative compounds of the invention” for “Compounds A1, A2 and A3”, “Table 13 and Table 14.” for “the following table (Table 12).”

`O=C(NCCNC1CC1)c1c(=O)c2ccc(N3CCOCC3)nc2n2c1sc1ccccc12` [Compound A3] was tested, and the “MiaPaCa tumor growth inhibition relative to untreated control group” value (MiaPaCa xenograft tumors) was “significantly inhibited MiaPaCa tumor growth”, the “A375 tumor growth inhibition relative to untreated control group” value [1] was “significantly inhibited A375 tumor growth” and the pIC50 ([2]; Homo sapiens, A-375, A375, Skin, Epithelial) was 7.15. The pIC50 ([2]; Homo sapiens, BXPC-3, BXPC3, Pancreas, Epithelial) was 7.15, the pIC50 ([2]; Homo sapiens, HCT-116, HCT-116, Colorectal, Epithelial) was 7.03 and the pIC50 ([2]; Homo sapiens, HL60/MX2, HL60/MX2, Hematopoetic, Lymphoma) was 6.66. The pIC50 ([2]; Homo sapiens, HL-60, HL60, Hematopoetic, Lymphoma) was 6.80, the pIC50 ([2]; Homo sapiens, HT-29, HT-29, Colorectal, Epithelial) was 6.99 and the pIC50 ([2]; Homo sapiens, Jurkat, Hematopoetic, Lymphoma) was 7.22. For the same compound, the pIC50 ([2]; Homo sapiens, K562, K562, Hematopoetic, Lymphoblast) was 6.92, the pIC50 ([2]; Homo sapiens, LNCaP, Prostate, Fibroblastoid) was 7.35 and the pIC50 ([2]; Homo sapiens, MCF7, MCF-7, Breast, Mammary carcinoma) was 6.57. The pIC50 ([2]; Homo sapiens, MDA-MB-231, MDA-MB-231, Breast, Epithelial) was 6.86, the pIC50 ([2]; Homo sapiens, MIA PaCa-2, Miapaca-2, Pancreas, Epithelial) was 6.91 and the pIC50 ([2]; Homo sapiens, NCI-H460, H460, Lung, Epithelial) was 6.91. It also gave a pIC50 ([2]; Homo sapiens, NCI-H1299, H1299, Lung, NSCL) of 6.99, a pIC50 ([2]; Homo sapiens, PANC-1, PANC-1, Pancreas, Epithelial) of 6.99 and a pIC50 ([2]; Homo sapiens, SAOS-2, Saos-2, Bone, Epithelial) of 6.60. It also gave a pIC50 ([2]; Homo sapiens, SK-MES-1, SK-MES-1, Lung, Sqaumous carcinoma) of 6.87, a pIC50 ([2]; Homo sapiens, SK-OV-3, SK-OV-3, Ovary, Epithelial) of 6.55 and a pIC50 ([2]; Homo sapiens, U2OS, Bone, Epithelial) of 6.32. It also gave a pIC50 ([2]; Miapaca-R5, Pancreas, Epithelial) of 6.88 and a pIC50 ([2]; PC-3, Prostate, Epithelial) of 6.25.
